Data on 16 compounds can be found in patent US4552684A, “Dichroic dye and liquid crystalline composition for color display” (Mitsui Toatsu Chemicals, Inc., priority 1983, dated 1985).

One data set can be described thus: dichroic ratio of dye dissolved in liquid crystals (homogeneously aligned 10 micron cell). The settings on record: liquid crystals E-8; Table 1 method: 1.0% by weight dye, 10 micron gap. In kind it is physicochemical. On the procedure: The dichroic ratio is determined as follows:
The cell was placed in the light path of a spectro-photometer. Straight polarized light parallel to the alignment of the liquid crystals was applied to the cell, and the absorbance ([…] ) was measured. Furthermore, straight polarized light at right angles to the alignment of the liquid crystals was applied, and the absorbance ([…] ) was measured. The dichroic ratio was calculated from the following equation. [formula]
Turning to `CCCCCCCC1CCC(c2nc3c(O)c4c(c(N)c3o2)C(=O)c2ccccc2C4=O)CC1` (centres unmarked) [Dye No. 16], the “Dichroic ratio in liquid crystals E-8” value is on record as 8.0.
The same measure, in the same setting: for `CCCCCCCCCC1CCC(c2nc3c(N)c4c(c(O)c3o2)C(=O)c2c(N)cccc2C4=O)CC1` (centres unmarked) [Dye No. 2] the value was 8.2; for `CCCCC[C@H]1CC[C@H](c2nc3cc4c(c(O)c3o2)C(=O)c2ccccc2C4=O)CC1` [Dye No. 4], 7.2; for `CCCCCCCC1CCC(c2nc3c(N)c4c(c(N)c3o2)C(=O)c2ccc(C(=O)OCCCC)cc2C4=O)CC1` (centres unmarked) [Dye No. 25], 9.3.
For the compound `CCCCOC(=O)C1CCC(c2nc3c(N)c4c(c(O)c3o2)C(=O)c2c(O)cccc2C4=O)CC1` (centres unmarked) [Dye No. 23], the “Dichroic ratio in liquid crystals E-8” value is reported as 8.2.
Still for that read-out and setting: under `CCCCOCCC1CCC(c2nc3c(Br)c4c(c(O)c3o2)C(=O)c2ccccc2C4=O)CC1` (centres unmarked) [Dye No. 6] stands 6.8; under `CCCCCC1CCC(c2nc3c(N)c4c(c(O)c3o2)C(=O)c2ccccc2C4=O)CC1` (centres unmarked) [Dye No. 8], 9.5; under `CCCCCCCC1CCC(c2nc3cc4c(c(O)c3o2)C(=O)c2c(NC)ccc(NC)c2C4=O)CC1` (centres unmarked) [Dye No. 20], 9.2.
As for `CC(CCC1CCC(c2nc3c(O)c4c(c(O)c3o2)C(=O)c2ccccc2C4=O)CC1)CC(C)(C)C` (centres unmarked) [Dye No. 7], the “Dichroic ratio in liquid crystals E-8” value turned out to be 8.1.
Turning to `CCCCCCCC1CCC(c2nc3c(N)c4c(c(O)c3o2)C(=O)c2ccc(C(=O)OCCCC)cc2C4=O)CC1` (centres unmarked) [Dye No. 24], the “Dichroic ratio in liquid crystals E-8” value is on record as 8.6.
The same measure, in the same setting: for `CCCCCCCCCC1CCC(c2nc3c(N)c4c(c(O)c3o2)C(=O)c2cc(C)ccc2C4=O)CC1` (centres unmarked) [Dye No. 15] the value was 10.2; for `CCCCCC1CCC(c2nc3cc4c(c(O)c3o2)C(=O)c2ccc(CC(C)C)c(O)c2C4=O)CC1` (centres unmarked) [Dye No. 21], 8.1.
On the same count and under the same terms, for `CCCCCCCCC1CCC(c2nc3c(N)c4c(c(O)c3o2)C(=O)c2c(N)ccc(O)c2C4=O)CC1` (centres unmarked) [Dye No. 14] the value was 10.5; for `CCCCCC1CCC(c2nc3c(N)c4c(c(N)c3o2)C(=O)c2ccccc2C4=O)CC1` (centres unmarked) [Dye No. 10], 8.1.
Consider `CC(C)(C)CC(C)(C)[C@H]1CC[C@H](c2nc3c(N)c4c(c(O)c3o2)C(=O)c2c(O)cccc2C4=O)CC1` [Dye No. 22], for which the “Dichroic ratio in liquid crystals E-8” value came to 11.6.
Same read-out and setting: for `CC(C)(C)c1ccc(C2CCC(c3nc4c(N)c5c(c(O)c4o3)C(=O)c3ccccc3C5=O)CC2)cc1` (centres unmarked) [Dye No. 5] the value was 10.1.

Another data set is described as follows: color of dye in toluene. In kind it is physicochemical.
Conditions: not given
Consider `CCCCCCCC1CCC(c2nc3c(O)c4c(c(N)c3o2)C(=O)c2ccccc2C4=O)CC1` (centres unmarked) [Dye No. 16], for which the Color in toluene entry is recorded as “Red”.
Still for that read-out and setting: for `CCCCCCCCCC1CCC(c2nc3c(N)c4c(c(O)c3o2)C(=O)c2c(N)cccc2C4=O)CC1` (centres unmarked) [Dye No. 2] the value was “Violet”.
Regarding `CCCCC[C@H]1CC[C@H](c2nc3cc4c(c(O)c3o2)C(=O)c2ccccc2C4=O)CC1` [Dye No. 4], the Color in toluene entry is on record as “Yellow”.
On the same count and under the same terms, for `CCCCCCCC1CCC(c2nc3c(N)c4c(c(N)c3o2)C(=O)c2ccc(C(=O)OCCCC)cc2C4=O)CC1` (centres unmarked) [Dye No. 25] the value was “Reddish violet”; for `CCCCOC(=O)C1CCC(c2nc3c(N)c4c(c(O)c3o2)C(=O)c2c(O)cccc2C4=O)CC1` (centres unmarked) [Dye No. 23], “Reddish violet”; for `CCCCOCCC1CCC(c2nc3c(Br)c4c(c(O)c3o2)C(=O)c2ccccc2C4=O)CC1` (centres unmarked) [Dye No. 6], “Orange”.
On the same count and under the same terms, under `CCCCCC1CCC(c2nc3c(N)c4c(c(O)c3o2)C(=O)c2ccccc2C4=O)CC1` (centres unmarked) [Dye No. 8] stands “Red”; under `CCCCCCCC1CCC(c2nc3cc4c(c(O)c3o2)C(=O)c2c(NC)ccc(NC)c2C4=O)CC1` (centres unmarked) [Dye No. 20], “Blue”.
The same measure, in the same setting: for `CC(CCC1CCC(c2nc3c(O)c4c(c(O)c3o2)C(=O)c2ccccc2C4=O)CC1)CC(C)(C)C` (centres unmarked) [Dye No. 7] the value was “Orange”; for `CCCCCCCC1CCC(c2nc3c(N)c4c(c(O)c3o2)C(=O)c2ccc(C(=O)OCCCC)cc2C4=O)CC1` (centres unmarked) [Dye No. 24], “Reddish violet”; for `CCCCCCCCCC1CCC(c2nc3c(N)c4c(c(O)c3o2)C(=O)c2cc(C)ccc2C4=O)CC1` (centres unmarked) [Dye No. 15], “Red”.
On to `CCCCCC1CCC(c2nc3cc4c(c(O)c3o2)C(=O)c2ccc(CC(C)C)c(O)c2C4=O)CC1` (centres unmarked) [Dye No. 21], for which the Color in toluene entry is “Orange”.
For `CCCCCCCCC1CCC(c2nc3c(N)c4c(c(O)c3o2)C(=O)c2c(N)ccc(O)c2C4=O)CC1` (centres unmarked) [Dye No. 14], the Color in toluene result is reported as “Blue”.
Regarding `CCCCCC1CCC(c2nc3c(N)c4c(c(N)c3o2)C(=O)c2ccccc2C4=O)CC1` (centres unmarked) [Dye No. 10], the Color in toluene result is reported as “Reddish violet”.
Same read-out and setting: for `CC(C)(C)CC(C)(C)[C@H]1CC[C@H](c2nc3c(N)c4c(c(O)c3o2)C(=O)c2c(O)cccc2C4=O)CC1` [Dye No. 22] the value was “Reddish violet”.
As for `CC(C)(C)c1ccc(C2CCC(c3nc4c(N)c5c(c(O)c4o3)C(=O)c3ccccc3C5=O)CC2)cc1` (centres unmarked) [Dye No. 5], the Color in toluene entry was “Red”.
